These results are taken from patent US20100240709A1, “Sulfoximine Derivatives as p38 MAP Kinase Inhibitors” (priority 2005, published 2010).

Chain of p38 MAP kinase (Q16539 whole entry): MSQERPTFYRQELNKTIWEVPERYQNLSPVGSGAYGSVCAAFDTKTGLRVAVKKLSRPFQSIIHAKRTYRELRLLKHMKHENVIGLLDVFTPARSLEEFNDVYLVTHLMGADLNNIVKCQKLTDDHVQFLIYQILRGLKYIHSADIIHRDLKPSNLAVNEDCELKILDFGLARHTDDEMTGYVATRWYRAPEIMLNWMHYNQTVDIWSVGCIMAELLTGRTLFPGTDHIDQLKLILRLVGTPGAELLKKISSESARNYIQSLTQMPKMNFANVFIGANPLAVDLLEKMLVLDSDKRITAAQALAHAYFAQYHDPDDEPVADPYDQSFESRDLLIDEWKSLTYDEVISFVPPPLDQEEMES

For this test, the target named is p38 MAP kinase (Homo sapiens, UniProt Q16539). Put plainly: p-38 MAPK Enzyme assay (in vitro ELISA, ATF-2 substrate). In kind it is biochemical. Conditions: ELISA detection of phosphorylated ATF-2. An excerpt:
The compounds were screened using an in vitro ELISA assay for p38 MAP kinase activity. Activated p38 MAP kinase during the course of its biological function phosphorylates its substrates. The assay was based on the detection of a phosphorylated p38 MAP kinase substrate using ATF-2 as the biological substrate. More the activity of the p38 MAP kinase inhibitor in the reaction mixture less will be the amount of active p38 MAP kinase available to phosphorylate ATF-2. So, lower OD value will indicate the higher inhibition of p38 MAP kinase by the specific p38 MAP kinase inhibitor. The quantitation of phosphorylated ATF-2 at varying concentrations of p38 MAP kinase inhibitor was used to determine the IC50 by fitting the results to a logistic dose-response program (Graphpad Prism, CA). IC50 was defined as the concentration of compound required to achieve 50% inhibition of p38 MAP kinase activity.
`CCc1nc(-c2ccccc2)c(-c2ccnc(N=S(C)(=O)c3ccccc3)c2)s1` (single isomer, unassigned; (+)) [Example 21]: the IC50 turned out to be 2.7 µM.

`CCc1nc(-c2ccc(F)cc2)c(-c2ccnc(N=S(=O)(c3ccccc3)C(C)C)c2)s1` (single isomer, unassigned; (+)) [Example 37, (+)-S-Isopropyl-S-phenyl-N-{4-[2-ethyl-4-(4-fluoro-phenyl)-thiazol-5-yl]-pyridin-2-yl}-sulfoximine] yielded an IC50 of 5.93 µM.

In turn, `CCc1nc(-c2ccc(F)cc2)c(-c2ccnc(N=S(C)(=O)c3ccccc3)c2)s1` (single isomer, unassigned; (+)) [Example 40, (+)-S-Methyl-S-phenyl-N-[4-(2-ethyl-4-(4-fluoro-phenyl)-1,3-thiazol-5-yl)-pyridine-2-yl]-sulfoximine] returned an IC50 of 2.7 µM.

Consider `CCc1nc(-c2cccc(C)c2)c(-c2ccnc(N=S(C)(=O)c3ccccc3)c2)s1` (single isomer, unassigned; (-)) [Example 6, (−)-S-methyl-S-phenyl-N-[4-(2-ethyl-4-(3-methylphenyl)-1,3-thiazol-5-yl)-pyridine-2-yl]-sulfoximine], for which 0.15 µM corresponded to half-maximal inhibition (IC50).

In turn, `CCc1nc(-c2ccccc2)c(-c2ccnc(N=S(C)(=O)c3ccccc3)c2)s1` (single isomer, unassigned; (-)) [Example 20] displayed a 50% inhibitory concentration (IC50) of 0.8 µM.

For `CCc1nc(-c2ccccc2)c(-c2ccnc(N=S(=O)(c3ccccc3)C3CCCC3)c2)s1` (single isomer, unassigned; (-)) [Example 29], half-maximal inhibition (IC50) was put at 2.6 µM.

`CCc1nc(-c2ccc(F)cc2)c(-c2ccnc(N=S(C)(=O)c3ccccc3)c2)s1` (single isomer, unassigned; (-)) [Example 33, (−)-S-Methyl-S-phenyl-N-{-4-[2-ethyl-4-(4-fluoro-phenyl)-thiazol-5-yl]-pyridin-2-yl}-sulfoximine] showed a half-inhibitory concentration (IC50) of 3.9 µM.

Consider `CCc1nc(-c2cccc(C)c2)c(-c2ccnc(N=S(=O)(c3ccccc3)C3CCCC3)c2)s1` (stereo not drawn) [Example 1, S-Cyclopentyl-S-phenyl-N-[4-(2-ethyl-4-(3-methylphenyl)-1,3-thiazol-5-yl)-pyridine-2-yl]-sulfoximine], for which the IC50 came to 0.78 µM.

In the case of `CCc1nc(-c2cccc(C)c2)c(-c2ccnc(N=S(=O)(C3CCCCC3)C3CCCCC3)c2)s1` [Example 2, S,S-dicyclohexyl-N-[4-(2-ethyl-4-m-tolyl-thiazol-5-yl)-pyridine-2-yl]sulfoximine], the IC50 was determined as 1.2 µM.

The molecule `CCc1nc(-c2cccc(C)c2)c(-c2ccnc(N=S(C)(=O)c3ccc(OC)cc3)c2)s1` (stereo not drawn) [Example 3, S-Methyl-S-4-methoxyphenyl-N-[4-(2-ethyl-4-m-tolyl-thiazol-5-yl)-pyridine-2-yl]-sulfoximine] had an IC50 of 1.1 µM.

For the molecule `CCc1nc(-c2cccc(C)c2)c(-c2ccnc(N=S(C)(=O)c3ccccc3)c2)s1` (stereo not drawn) [Example 4, S-Methyl-S-phenyl-N-[4-(2-ethyl-4-(3-methylphenyl)-1,3-thiazol-5-yl)-pyridine-2-yl]-sulfoximine], 1.12 µM corresponded to half-maximal inhibition (IC50).

As to `CCc1nc(-c2cccc(C)c2)c(-c2ccnc(N=[S@@](C)(=O)c3ccccc3)c2)s1` [Example 5, (+)-(S)-methyl-S-phenyl-N-[4-(2-ethyl-4-(3-methylphenyl)-1,3-thiazol-5-yl)-pyridine-2-yl]-sulfoximine], the IC50 was 1.4 µM.

The molecule `CCc1nc(-c2cccc(C)c2)c(-c2ccnc(N=S(C)(=O)c3ccc(F)cc3)c2)s1` (stereo not drawn) [Example 7, S-Methyl-S-(4-fluorophenyl)-N-[4-(2-ethyl-4-(3-methylphenyl)-1,3-thiazol-5-yl)-pyridine-2-yl]-sulfoximine] returned an IC50 of 3.8 µM.

Molecule `CCc1nc(-c2cccc(C)c2)c(-c2ccnc(N=S(=O)(CC(C)C)c3ccccc3)c2)s1` (stereo not drawn) [Example 8, S-Isobutyl-S-phenyl-N-[4-(2-ethyl-4-m-tolyl-thiazol-5-yl)-pyridin-2-yl]-sulfoximine] gave an IC50 of 55.4 µM.

`CCc1nc(-c2cccc(C)c2)c(-c2ccnc(N=S(C)(=O)c3cccc(F)c3)c2)s1` (stereo not drawn) [Example 9, S-(3-Fluorophenyl)-S-methyl-N-[4-(2-ethyl-4-m-tolyl-thiazol-5-yl)-pyridin-2-yl]-sulfoximine] displayed an IC50 of 5.42 µM.

`CCc1nc(-c2cccc(C)c2)c(-c2ccnc(N=S(C)(=O)c3cccc(C)c3)c2)s1` (stereo not drawn) [Example 10, S-(3-Methylphenyl)-S-methyl-N-[4-(2-ethyl-4-m-tolyl-thiazol-5-yl)-pyridin-2-yl]-sulfoximine] returned a half-maximal inhibitory concentration (IC50) of 11.1 µM.

The molecule `CCc1nc(-c2cccc(C)c2)c(-c2ccnc(N=S(=O)(c3ccccc3)c3ccccc3)c2)s1` [Example 11, S,S-Diphenyl-N-[4-(2-ethyl-4-m-tolyl-thiazol-5-yl)-pyridin-2-yl]-sulfoximine] came in with an IC50 of 2 µM.

In the case of `CCc1nc(-c2cccc(C)c2)c(-c2ccnc(N=S(C)(=O)c3ccccc3C)c2)s1` (stereo not drawn) [Example 12, S-(2-Methylphenyl)-S-methyl-N-[4-(2-ethyl-4-m-tolyl-thiazol-5-yl)-pyridin-2-yl]-sulfoximine], it took 6.95 µM to reach half-maximal inhibition (IC50).

In turn, `CCc1nc(-c2cccc(C)c2)c(-c2ccnc(N=S(=O)(c3ccccc3)C(C)C)c2)s1` (stereo not drawn) [Example 13, S-Isopropyl-S-phenyl-N-[4-(2-ethyl-4-(3-methylphenyl)-1,3-thiazol-5-yl)-pyridine-2-yl]-sulfoximine] returned an IC50 of 1.3 µM.

In turn, `CCc1nc(-c2cccc(C)c2)c(-c2ccnc(N=S(=O)(CC)c3ccccc3)c2)s1` (stereo not drawn) [Example 14, S-Ethyl-S-Phenyl-N-[4-(2-ethyl-4-(3-methylphenyl)-1,3-thiazol-5-yl)-pyridine-2-yl]-sulfoximine] gave an IC50 of 6.2 µM.

`CCc1nc(-c2cccc(C)c2)c(-c2ccnc(N=S(C)(=O)c3ccc(C)cc3)c2)s1` (stereo not drawn) [Example 15, S-Methyl-S-4-methylphenyl-N-[4-(2-ethyl-4-(3-methylphenyl)-1,3-thiazol-5-yl)-pyridine-2-yl]-sulfoximine] yielded an IC50 of 4.9 µM.

`CCCCS(=O)(CCCC)=Nc1cc(-c2sc(CC)nc2-c2cccc(C)c2)ccn1` [Example 16, Di-n-butyl-N-[4-(2-ethyl-4-(3-methylphenyl)-1,3-thiazol-5-yl)-pyridine-2-yl]-sulfoximine] had a half-inhibitory concentration (IC50) of 1.9 µM.

As for `CCc1nc(-c2cccc(C)c2)c(-c2ccnc(N=S(C)(=O)c3ccc(F)c(Cl)c3)c2)s1` (stereo not drawn) [Example 17, S-Methyl-S-(3-chloro-4-fluoro-phenyl)-N-[4-(2-ethyl-4-(3-methylphenyl)-1,3-thiazol-5-yl)-pyridine-2-yl]-sulfoximine], half-maximal inhibition (IC50) required 10 µM.

Consider `CCc1nc(-c2cccc(C)c2)c(-c2ccnc(N=S3(=O)CCCCC3)c2)s1` [Example 18, 1-Imino-N-[4-(2-ethyl-4-(3-methylphenyl)-1,3-thiazol-5-yl)-pyridine-2-yl]-tetrahydro-2H-thiopyran-1-oxide], for which the IC50 was 15 µM.

In turn, `CCc1nc(-c2cccc(C)c2)c(-c2ccnc(N=S3(=O)CCCC3)c2)s1` [Example 19, 1-Imino-N-[4-(2-ethyl-4-(3-methylphenyl)-1,3-thiazol-5-yl)-pyridine-2-yl]-tetrahydro-thiophene-1-oxide] showed an IC50 of 6.8 µM.

As for `CCc1nc(-c2ccccc2)c(-c2ccnc(N=S(=O)(c3ccccc3)C(C)C)c2)s1` (stereo not drawn) [Example 22], the IC50 came out at 5.01 µM.

As to `CCc1nc(-c2ccccc2)c(-c2ccnc(N=S(C)(=O)c3ccc(OC)cc3)c2)s1` (stereo not drawn) [Example 23], 6.6 µM corresponded to half-maximal inhibition (IC50).
